Patent US20210330611A1, “THERAPY FOR NEUROLOGICAL DISEASES/DISORDERS” (priority 2020, published 2021)
Where two headings read alike, the source gives them in different places.

Tests used:
primary rat microglia [1] = test system: primary rat microglia;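 on Fibrin % cell toxicity: share of dead cells sized under 150 µm2 at 10 µM in fibrin-stimulated microglia HTS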
[2] = test system: fibrin- and LPS-induced microglia activation; assay: cells; assay type: cell-based, rat
primary rat microglia [3] = test system: primary rat microglia; remark: listed apart in the source;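 on Fibrin % cell toxicity: share of dead cells sized under 150 µm2 at 10 µM in fibrin-stimulated microglia HTS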
[4] = test system: fibrin-induced microglia activation; assay: Image-based assay of fibrin-induced microglia activation (HTS and dose response); assay type: cell-based, rat; conditions: for inhibition at 10 µM: Rattus norvegicus, Microglia, read-out: Fibrin % inhibition
[5] = test system: LPS-induced microglia activation; assay: Image-based assay of LPS-induced microglia activation (HTS and dose response); assay type: cell-based, rat
[6] = Rattus norvegicus, Microglia, 48 h, read-out: LPS % inhibition
[7] = quadrant by fibrin and LPS inhibition in HTS of 1907 compounds
[8] = primary microglia HTS, fibrin stimulation, increased cell size (>800 μm^2) as marker of activation
[9] = Rattus norvegicus, Microglia, 48 h, primary microglia HTS, LPS stimulation; increased cell size (>800 μm^2) as marker of activation; read-out: LPS % inhibition
[10] = primary microglia HTS, LPS stimulation; increased cell size (>800 μm^2) as marker of activation
[11] = classification by fibrin and LPS inhibition in HTS
[12] = primary microglia HTS, fibrin stimulation, cell size >800 μm2 as marker of activation
[13] = Rattus norvegicus, Microglia, 48 h; read-out: LPS % inhibition

Structure (SMILES) | LPS % cell toxicity (primary rat microglia [1]; rat) | Quadrant (FIG. 5b) [2] | Fibrin % cell toxicity (primary rat microglia [3]; rat) | Quadrant (FIG. 5b) [2, 7] | inhibition at 10 µM [4, 8] | inhibition at 10 µM [5, 9] | also measured
C=CCN1CC[C@]23c4c5ccc(O)c4O[C@H]2C(=O)CC[C@@]3(O)[C@H]1C5 [Naloxone] | 1% | Q4 | 1% |  |  |  | Fibrin % inhibition [4]: −41%; inhibition at 10 µM [5, 6]: 21%
OC(CNCC(O)C1CCc2cc(F)ccc2O1)C1CCc2cc(F)ccc2O1 (centres unmarked) [Nebivolol] | 0% |  | 1% | Q4 | -10% | 6% | 
Cc1c(O)cccc1C(=O)N[C@@H](CSc1ccccc1)[C@H](O)CN1C[C@H]2CCCC[C@H]2C[C@H]1C(=O)NC(C)(C)C [Nelfinavir] | 0% |  | 1% | Q4 | 16% | 13% | 
NC[C@@H]1O[C@H](O[C@H]2[C@@H](O)[C@H](O[C@@H]3[C@@H](O)[C@H](N)C[C@H](N)[C@H]3O[C@H]3O[C@H](CN)[C@@H](O)[C@H](O)[C@H]3N)O[C@@H]2CO)[C@H](N)[C@@H](O)[C@@H]1O.O=S(=O)(O)O [Neomycin Sulfate] |  |  |  | Q4 |  |  | LPS % cell toxicity (primary rat microglia [1]): 0%; Fibrin % cell toxicity (primary rat microglia [3]): 0%; Fibrin % inhibition [4, 8]: 15%; LPS % inhibition [5, 10]: 18%
CO[C@]12C[C@@H](COC(=O)c3cncc(Br)c3)CN(C)[C@@H]1Cc1cn(C)c3cccc2c13 [Nicergoline] | 0% |  | 1% | Q4 | 6% | 7% | 
NC(=O)c1cccnc1 [Nicotinamide] | 0% | Q4 | 1% |  |  |  | inhibition at 10 µM [4]: -8%; inhibition at 10 µM [5, 6]: 16%
CN1CCC[C@H]1c1cccnc1 [Nicotine] | 1% | Q4 | 1% |  |  |  | inhibition at 10 µM [4]: 2%; inhibition at 10 µM [5, 6]: 21%
Cc1cn(-c2cc(NC(=O)c3ccc(C)c(Nc4nccc(-c5cccnc5)n4)c3)cc(C(F)(F)F)c2)cn1 [Nilotinib] | 1% |  | 1% | Q4 | -35% | 17% | 
COC(=O)C1=C(C)NC(C)=C(C(=O)OCC(C)C)C1c1ccccc1[N+](=O)[O-] (centres unmarked) [Nisoldipine] | 1% |  | 1% | Q4 | 6% | 25% | 
O=C1CN=C(c2ccccc2)c2cc([N+](=O)[O-])ccc2N1 [Nitrazepam] | 0% |  | 1% | Q4 | -1% | -4% | 
O=C1CN(/N=C/c2ccc([N+](=O)[O-])o2)C(=O)N1 [Nitrofurantoin] | 0% | Q4 | 1% |  |  |  | inhibition at 10 µM [4]: -3%; inhibition at 10 µM [5, 6]: 11%
CNC(=C[N+](=O)[O-])NCCSCc1csc(CN(C)C)n1 [Nizatidine] | 0% |  | 0% | Q4 | -18% | 14% | 
CCn1cc(C(=O)O)c(=O)c2cc(F)c(N3CCNCC3)cc21 [Norfloxacin] | 0% |  | 1% | Q4 | 0% | 9% | 
Cc1cc2c(s1)Nc1ccccc1N=C2N1CCN(C)CC1 [Olanzapine] | 0% | Q4 | 1% |  |  |  | inhibition at 10 µM [4]: 6%; inhibition at 10 µM [5, 6]: 9%
Cc1c(-c2cnccn2)ssc1=S [Oltipraz] | 0% | Q4 | 1% |  |  |  | inhibition at 10 µM [4]: -2%; inhibition at 10 µM [5, 6]: -1%
CC(C)NCC(O)c1cc(O)cc(O)c1 (centres unmarked) [Orciprenaline] | 0% |  | 0% | Q4 | 15% | 25% | 
O=C(O)c1cc(=O)[nH]c(=O)[nH]1 [Orotic Acid] | 0% |  | 0% | Q4 | -5% | 16% | 
CCn1cc(C(=O)O)c(=O)c2cc3c(cc21)OCO3 [Oxolinic Acid] | 1% |  | 0% | Q4 | 7% | 13% | 
CCN(CC)CC#CCOC(=O)C(O)(c1ccccc1)C1CCCCC1 (centres unmarked) [Oxybutynin] | 1% | Q4 | 0% |  |  |  | inhibition at 10 µM [4]: -9%; inhibition at 10 µM [5, 6]: 0%

Structure (SMILES) | LPS % cell toxicity (primary rat microglia [1]; rat) | Quadrant (FIG. 5b) [2] | Fibrin % cell toxicity (primary rat microglia [3]; rat) | Quadrant (FIG. 5b) [2, 7] | inhibition at 10 µM [4, 8] | inhibition at 10 µM [5, 9] | also measured
CCCCC1C(=O)N(c2ccccc2)N(c2ccc(O)cc2)C1=O (centres unmarked) [Oxyphenbutazone] |  |  |  | Q1 |  |  | LPS % cell toxicity (primary rat microglia [1]): 97%; Fibrin % cell toxicity (primary rat microglia [3]): 1%; Fibrin % inhibition [4, 8]: 2%; LPS % inhibition [5, 10]: 114%
Oc1cccc2cccnc12 [Oxyquinoline] | 57% | Q2 | 80% |  |  |  | inhibition at 10 µM [4]: 117%; inhibition at 10 µM ([5]; Rattus norvegicus, Microglia, read-out: LPS % inhibition): 116%
CN(C)[C@@H]1C(O)=C(C(N)=O)C(=O)[C@@]2(O)C(O)=C3C(=O)c4c(O)cccc4[C@@](C)(O)[C@H]3[C@H](O)[C@@H]12 [Oxytetracycline] | 0% |  | 1% | Q4 | 0% | 10% | 
Cc1nc2n(c(=O)c1CCN1CCC(c3noc4cc(F)ccc34)CC1)CCCC2O (centres unmarked) [Paliperidone] | 0% |  | 1% | Q4 | -26% | 9% | 
Oc1ccc(Cl)cc1 [Parachlorophenol] | 0% | Q4 | 0% |  |  |  | inhibition at 10 µM [4]: 21%; inhibition at 10 µM [5, 6]: 15%
Fc1ccc([C@@H]2CCNC[C@H]2COc2ccc3c(c2)OCO3)cc1 [Paroxetine] | 0% |  | 1% |  |  |  | Quadrant (FIG. 5b) [2, 11]: Q4; inhibition at 10 µM [4, 12]: 38%; inhibition at 10 µM [5, 13]: 15%
Nc1nc2[nH]cc(CCc3ccc(C(=O)N[C@@H](CCC(=O)O)C(=O)O)cc3)c2c(=O)[nH]1 [Pemetrexed] | 0% |  | 0% |  |  |  | Quadrant (FIG. 5b) [2, 11]: Q4; inhibition at 10 µM [4, 12]: -8%; inhibition at 10 µM [5, 13]: 9%
CC(C)(C)NC[C@H](O)COc1ccccc1C1CCCC1 [Penbutolol] | 0% |  | 1% |  |  |  | Quadrant (FIG. 5b) [2, 11]: Q4; inhibition at 10 µM [4, 12]: -8%; inhibition at 10 µM [5, 13]: 17%
CC(C)(S)[C@@H](N)C(=O)O [Penicillamine] | 0% |  | 0% |  |  |  | Quadrant (FIG. 5b) [2, 11]: Q4; inhibition at 10 µM [4, 12]: -15%; inhibition at 10 µM [5, 13]: 16%
N=C(N)c1ccc(OCCCCCOc2ccc(C(=N)N)cc2)cc1 [Pentamidine] | 1% | Q4 | 1% |  |  |  | inhibition at 10 µM [4]: 6%; inhibition at 10 µM [5, 6]: 33%
CC(=O)CCCCn1c(=O)c2c(ncn2C)n(C)c1=O [Pentoxifylline] | 0% |  | 0% |  |  |  | Quadrant (FIG. 5b) [2, 11]: Q4; inhibition at 10 µM [4, 12]: 4%; inhibition at 10 µM [5, 13]: 6%
NNCCc1ccccc1 [Phenelzine] | 0% | Q4 | 1% |  |  |  | inhibition at 10 µM [4]: 2%; inhibition at 10 µM [5, 6]: -4%
CN(C)CCC(c1ccccc1)c1ccccn1 (centres unmarked) [Pheniramine] | 0% |  | 1% |  |  |  | Quadrant (FIG. 5b) [2, 11]: Q4; inhibition at 10 µM [4, 12]: -9%; inhibition at 10 µM [5, 13]: 1%
CC(C)=CC1C(C(=O)OCc2cccc(Oc3ccccc3)c2)C1(C)C (centres unmarked) [Phenothrin] | 0% |  | 0% |  |  |  | Quadrant (FIG. 5b) [2, 11]: Q4; inhibition at 10 µM [4, 12]: -50%; inhibition at 10 µM [5, 13]: 11%
CC(COc1ccccc1)N(CCCl)Cc1ccccc1 (centres unmarked) [Phenoxybenzamine] | 0% |  | 1% |  |  |  | Quadrant (FIG. 5b) [2, 11]: Q4; inhibition at 10 µM [4, 12]: 8%; inhibition at 10 µM [5, 13]: -5%
CCCCC1C(=O)N(c2ccccc2)N(c2ccccc2)C1=O [Phenylbutazone] | 0% |  | 0% |  |  |  | Quadrant (FIG. 5b) [2, 11]: Q4; inhibition at 10 µM [4, 12]: -23%; inhibition at 10 µM [5, 13]: 5%
CNC[C@H](O)c1cccc(O)c1 [Phenylephrine] | 0% | Q4 | 1% |  |  |  | inhibition at 10 µM [4]: 38%; inhibition at 10 µM [5, 6]: 31%
CC1=C(C/C=C(\C)CCC[C@H](C)CCC[C@H](C)CCCC(C)C)C(=O)c2ccccc2C1=O [Phylloquinone] |  |  |  |  |  |  | LPS % cell toxicity (primary rat microglia [1]): 2%; Quadrant (FIG. 5b) [2, 11]: Q4; Fibrin % cell toxicity (primary rat microglia [3]): 0%; Fibrin % inhibition [4, 12]: 4%; LPS % inhibition [5]: 31%
